Measurements from patent EP1625854B1, “Albumin conjugates containing a glucuronic linker” (Deutsches Krebsforschungszentrum Stiftung des öffentlichen …, priority 2004, dated 2006).

Legend:
[1] = system: synovial fibroblasts (sFb); assay: Release of a fluorescent aglycon (methyl umbelliferon) from MUG-HSA in human synovial fibroblasts; format: cell-based
Text: (§1) The amounts given in the Figure relate to 1 well and the methyl umbelliferon glucuronide within the HSA conjugate. After addition of 1 M NaOH methyl umbelliferon was fluorimetrically determined in the cell subernatant at 448 nm with an excitation at 360 nm. […] Thus, despite its coupling to albumin MUG-HSA is a substrate for human synovial fribroblasts. MUG-(HSA) is stable in medium without cells.

[2] = Stability of MUG-HSA in medium without cells; format: in vitro ADME
Text: as §1

WEHI-7 cells = assay: Induction of cell death in glucocorticoid-sensitive WEHI-7 cells (propidium iodide staining, fluorimetric analysis); format: cell-based, mouse
Procedure: Cell death in glucocorticoid-sensitive WEHI-7 cells was induced by incubation with low molecular hydrocortisone (HC) and albumin-coupled hydrocortisone (hydrocortisone-21-β-D-glucuronide-HSA; HCG-HSA) over a period of 72 h. Different albumin concentrations were equalized by addition of free HSA. Dead cells were determined by fluorimetric analysis (staining with propidium iodide (PI)). […] Since the albumin conjugate was taken up by the cells via endocytosis (whereas the free HC passes the cell membrane via diffusion) HCG-HSA has to be applied in a two-fold concentration for achieving the same effect.

Substance	cleavage of fluorescent methyl umbelliferon ([1]; in conditioned medium of synovial fibroblasts)	Cleavage ([1]; incubation for 24 h in synovial fibroblasts, methyl umbelliferon fluorimetrically determined in supernatant at 448 nm, excitation 360 nm, Figure 4)	stability in medium [2]	concentration for achieving the same effect (WEHI-7 cells; HCG-HSA relative to free HC, WEHI-7 cells, 72 h)	activity as a glucocorticoid (WEHI-7 cells; despite coupling to albumin, WEHI-7 cells, 72 h)	Cell death (WEHI-7 cells; incubation over 72 h, albumin concentrations equalized with free HSA, dead cells by PI staining, Figure 3)
methyl umbelliferon glucuronide-HSA [MUG-HSA]	could be demonstrated	could be demonstrated	stable			
hydrocortisone-21-β-D-glucuronide-HSA [HCG-HSA]				two-fold	keeps its activity	dose dependent cell death
